Columns and labels:
human HepG2 cells [1] = assay: Intracellular calcium level with Fluo-3 AM in PA-treated HepG2 cells; format: cell-based; details: PA 0, 100, 300 or 500 μM, 24 hours
Method: First, male C57BL/6 mice at 8 weeks (Orient Bio, Korea) were raised in an animal facility of Lee Gil Ya Cancer and Diabetes Institute (Gachon University, Korea). Particularly, the mice were raised in a sterile chamber at the temperature of 23±1° C., with 12 hr/12 hr light/dark cycle, and free dietary environment. At this time, the mice were divided into the fasted group wherein the mice were fasted for 16 hours and the refed group wherein the mice were fasted for 16 hours and then fed for 4 hours. Each group was sub-divided into the high fat diet group (HFD) and the normal diet group (chow). The high fat diet group (HFD) mice were fed with diet containing 60% fat, while the normal diet group (chow) mice were fed with diet containing 10% fat. 8 weeks later, the mice were anesthetized and the liver was perfused by using buffer 1 (142 mM NaCl, 6.7 mM KCl, 10 mM HEPES and 2.5 mM EGTA, pH 7.4). Buffer 1 above was replaced with buffer 2 (0.5 mg/Me collagen, 66.7 mM NaCl, 6.7 mM KCl, 10 mM HEPES and 4.8 mM CaCl, pH 7.6), and then the perfused liver was extracted. The extracted liver was washed and degraded by using Percoll cushion gradient. The degraded cells were suspended and cultured in Hepatozyme-SFM (Gibco-BRL, USA) culture medium supplemented with 10% FBS and 1% antibiotics and antifungal agent. […] The mounted cells were analyzed using a fluorescence microscope (Zeiss Axioplan 2). […]

Akt protein = assay: Western blotting of Akt protein phosphorylation in insulin-treated HepG2 cells; format: cell-based, human; details: HepG2, PA 24 hours, 100 nM insulin; compared with insulin alone
Method: First, male C57BL/6 mice at 8 weeks were divided into the fasted group wherein the mice were fasted for 16 hours and the refed group wherein the mice were fasted for 16 hours and then fed for 4 hours. Each group was sub-divided into the high fat diet group (HFD) and the normal diet group (chow). The liver cells were extracted from the raised mice by the same manner and under the same conditions as described in Example 1. The extracted liver cells were lysed in a lysis buffer containing phosphatase (Sigma-Aldrich, USA) and protease inhibitor (Sigma-Aldrich, USA). Proteins extracted from 2 to 3 mg of the liver tissue were homogenized by using a tissue homogenizer (TissuLyser, Qiagen, USA) for 1.5 minutes at a frequency of 1/30 sec. The homogenized lysate was centrifuged at 12,000 rpm for 15 minutes and the supernatant was obtained. The amount of the extracted protein was quantified by using a protein assay kit (Bio-Rad Laboratories, USA), and at this time BSA was used as a standard sample. 3 mg of the protein was mixed with 6× loading buffer, followed by electrophoresis using 10% SDS-PAGE gel. The electrophoresed protein was transferred onto a polyvinylidene fluoride (PVDF) membrane by using a transfer buffer at 4° C. with 120 V for 1.5 hours. The PVDF membrane on which the protein was transferred was pretreated with a blocking buffer prepared by mixing 5% skim milk with TBS buffer (TBS-T, pH 7.6) supplemented with Tween 20 for 30 minutes, and the membrane was washed with TBS-T. The washed membrane was added with the antibody against Akt (Cell Signaling Technology, USA), Akt(T308) (Cell Signaling Technology, USA), Akt(S473) (Cell Signaling Technology, USA), FOXO3A (Cell Signaling Technology, USA), FOXO3A(S253) (Cell Signaling Technology, USA), GSK-3β (Cell Signaling Technology, USA) or GSK-3β(S9) (Cell Signaling Technology, USA) protein as a primary antibody, followed by reaction at 4° C. for 12 hours. At this time, the antibody against actin (Santa Cruz Biotechnology, USA) protein was used for the control group. Upon completion of the reaction, the secondary antibody corresponding to the primary antibody was added thereto, followed by reaction at room temperature for 30 minutes. The PVDF membrane was washed with TBS-T buffer three times. The washed PVDF membrane was added with ECL solution (Thermo Scientific, USA), followed by image observation.
To investigate the changes in insulin sensitivity when insulin was added to the fatty liver cell model constructed in vitro, the phosphorylations of those proteins that were involved in insulin signaling mechanism were examined. PA was added to the human HepG2 cells prepared in Example 3, followed by reaction for 24 hours. […]

human HepG2 cells [2] = assay: Intracellular calcium dynamics with Fura-2 AM in insulin resistance induced cells; format: cell-based
Method: First, human HepG2 cells were cultured in DMEM (Dulbecco's Modified Eagle Medium) supplemented with 10% fetal bovine serum (FBS), 25 mM glucose, 2 mM L-glutamine, 100 U/Ml of penicillin and 100 μg/Ml of streptomycin. At this time, the culture was performed in a 37° C., 5% CO2 incubator. The cultured cells were distributed in a culture plate at the density of 5.0×10^5 cells/well, followed by further culture for overnight. Palmitic acid (PA) was added to the plate at the concentration of 0, 100, 300 or 500 μM, followed by reaction for 24 hours. Then, the concentration of calcium was investigated by using Fluo-3 AM according to the same conditions and procedures as described in Example 1, and the results are shown in FIG. 2A and FIG. 2B. Intracellular calcium dynamics was confirmed in the fatty liver cell model constructed in vitro by inducing insulin resistance. At this time, the experiment was performed by the same manner under the same conditions as described in Example 3 except that Fura-2 AM was used instead of Fluo-3 AM.

With `CCCCCCCCCCCCCCCC(=O)O` [PA, Palmitic acid] the “concentration of calcium in the cytoplasm” value (human HepG2 cells [1]) was “increased”, the Akt protein phosphorylation (Akt protein) was “significantly inhibited” and the intracellular calcium concentration (human HepG2 cells [2]) was “significantly increased”.
